The values that follow come from US9624214B2, “Amino-substituted imidazo[1,2-a]pyridinecarboxamides and their use” (BAYER PHARMA AKTIENGESELLSCHAFT, priority 2012, dated 2017).

Counter-ions that a name gives are not always drawn.

This test concerns the target T1, recombinant guanylate cyclase reporter cell line (Rattus norvegicus, UniProt P19686+P20595).
T1 construct: expressed in transfected cells
T1 sequence (P20595 1-619): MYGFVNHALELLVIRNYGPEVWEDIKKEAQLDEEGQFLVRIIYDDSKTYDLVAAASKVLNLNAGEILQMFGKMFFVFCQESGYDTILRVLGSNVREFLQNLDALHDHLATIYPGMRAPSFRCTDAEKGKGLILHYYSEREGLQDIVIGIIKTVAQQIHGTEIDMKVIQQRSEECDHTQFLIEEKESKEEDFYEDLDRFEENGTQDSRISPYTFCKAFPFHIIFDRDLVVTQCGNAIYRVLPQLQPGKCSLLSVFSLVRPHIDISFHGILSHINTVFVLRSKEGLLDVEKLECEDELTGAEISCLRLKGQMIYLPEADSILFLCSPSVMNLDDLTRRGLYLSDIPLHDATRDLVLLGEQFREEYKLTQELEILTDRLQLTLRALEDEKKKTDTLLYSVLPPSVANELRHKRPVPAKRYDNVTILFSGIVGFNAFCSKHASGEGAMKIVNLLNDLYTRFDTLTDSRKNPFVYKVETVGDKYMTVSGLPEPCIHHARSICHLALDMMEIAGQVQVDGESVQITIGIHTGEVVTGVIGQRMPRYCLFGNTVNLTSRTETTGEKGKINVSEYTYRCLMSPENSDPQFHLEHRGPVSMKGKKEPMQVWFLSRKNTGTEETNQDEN
T1 sequence (P19686 1-690): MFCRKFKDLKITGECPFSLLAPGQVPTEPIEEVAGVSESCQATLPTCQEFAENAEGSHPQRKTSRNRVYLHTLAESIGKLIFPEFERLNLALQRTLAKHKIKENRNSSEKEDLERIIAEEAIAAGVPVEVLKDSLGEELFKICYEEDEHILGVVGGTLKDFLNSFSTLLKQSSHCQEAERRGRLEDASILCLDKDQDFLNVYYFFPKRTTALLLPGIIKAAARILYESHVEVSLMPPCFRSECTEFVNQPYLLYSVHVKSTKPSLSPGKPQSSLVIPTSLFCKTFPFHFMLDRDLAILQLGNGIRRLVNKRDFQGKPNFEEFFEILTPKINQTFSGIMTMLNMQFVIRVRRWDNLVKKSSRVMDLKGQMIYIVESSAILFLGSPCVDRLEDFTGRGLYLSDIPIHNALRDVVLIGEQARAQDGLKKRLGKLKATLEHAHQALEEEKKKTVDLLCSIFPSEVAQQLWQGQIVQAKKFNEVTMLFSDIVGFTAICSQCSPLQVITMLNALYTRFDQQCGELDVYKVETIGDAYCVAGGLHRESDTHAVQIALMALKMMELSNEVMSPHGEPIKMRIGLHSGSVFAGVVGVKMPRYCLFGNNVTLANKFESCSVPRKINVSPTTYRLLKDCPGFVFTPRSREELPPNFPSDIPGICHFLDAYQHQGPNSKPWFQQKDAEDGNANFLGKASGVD
Kind of test: B-2. Action on recombinant guanylate cyclase reporter cell line. Type of test: cell-based. The conditions noted are these: MEC = minimal effective concentration; in some cases mean values from individual determinations. Summed up: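 Rat recombinant guanylate cyclase reporter cell line measures cellular activity. Value reported as MEC (minimal effective concentration), sometimes averaged over individual determinations.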
Take `Cc1cc(OCc2c(F)cccc2F)c2nc(C)c(C(=O)NCCN3C[C@@H](C)O[C@@H](C)C3)n2c1` [Example 167, 8-[(2,6-difluorobenzyl)oxy]-N-{2-[(2R,6S)-2,6-dimethylmorpholin-4-yl]ethyl}-2,6-dimethyl-imidazo[1,2-a]pyridine-3-carboxamide]: the MEC was found to be 1.00 µM. With `Cc1cc(OCCC(C)C)c2nc(C)c(C(=O)NCC(C)(N)CC(C)C)n2c1` (racemic) [Example 249, rac-N-(2-Amino-2,4-dimethylpentyl)-2,6-dimethyl-8-(3-methylbutoxy)imidazo[1,2-a]pyridine-3-carboxamide], the MEC turned out to be 1.00 µM. For the compound `CCCC(C)(N)CNC(=O)c1c(C)nc2c(OCc3cccc(F)c3)cc(C)cn12` (racemic) [Example 348, rac-N-(2-amino-2-methylpentyl)-8-[(3-fluorobenzyl)oxy]-2,6-dimethylimidazo[1,2-a]pyridine-3-carboxamide], the MEC stood at 1.00 µM.

Take `Cc1nc2c(OCC3CCCCC3)cccn2c1C(=O)NC(CN)c1ccc(F)c(F)c1` (single isomer, unassigned) [Example 179, ent-N-[2-Amino-1-(3,4-difluorophenyl)ethyl]-8-(cyclohexylmethoxy)-2-methylimidazo[1,2-a]-pyridine-3-carboxamide]: the MEC was 1.00 µM. As for `Cc1cc(OCc2c(F)cccc2F)c2nc(C)c(C(=O)NCC(C)(N)CO)n2c1` (single isomer, unassigned; enantiomer b) [Example 269, ent-N-(2-Amino-3-hydroxy-2-methylpropyl)-8-[(2,6-difluorobenzyl)oxy]-2,6-dimethylimidazo-[1,2-a]pyridine-3-carboxamide (Enantiomer B)], the MEC is 0.65 µM. As for `Cc1cc(OCc2c(F)cccc2F)c2nc(C)c(C(=O)NCC(C)(N)CF)n2c1` (single isomer, unassigned; enantiomer b) [Example 284, ent-N-(2-amino-3-fluoro-2-methylpropyl)-8-[(2,6-difluorobenzyl)oxy]-2,6-dimethylimidazo[1,2-a]pyridine-3-carboxamide (Enantiomer B)], the MEC turned out to be 0.1 µM. Regarding `Cc1nc2c(OCc3c(F)cccc3F)cccn2c1C(=O)NC1CCNc2ccc(F)cc21` (single isomer, unassigned; ent-8) [Example 106, ent-8-[(2,6-difluorobenzyl)oxy]-N-(6-fluoro-1,2,3,4-tetrahydroquinolin-4-yl)-2-methylimidazo[1,2-a] pyridine-3-carboxamide], the MEC stood at 0.03 µM.

Take `Cc1nc2c(OCc3c(F)cccc3F)cccn2c1C(=O)NC1CNc2ccccc2C1` (racemic) [Example 75, rac-8-[(2,6-Difluorobenzyl)oxy]-2-methyl-N-(1,2,3,4-tetrahydroquinolin-3-yl)imidazo[1,2-a]-pyridine-3-carboxamide]: the MEC worked out at 1.00 µM. For `Cc1cc(OCc2c(F)cccc2F)c2nc(C)c(C(=O)NC(CN)c3cc(F)c(F)c(F)c3)n2c1` (racemic) [Example 390, rac-N-[2-amino-1-(3,4,5-trifluorophenyl)ethyl]-8-[(2,6-ifluorobenzyl)oxy]-2,6-dimethylimidazo[1,2-a]pyridine-3-carboxamide] the value was 0.30 µM; for `Cc1nc2c(OCc3c(F)cccc3F)cc(Cl)cn2c1C(=O)NCC(N)CC(F)(F)F` (single isomer, unassigned) [Example 192, ent-N-(2-Amino-4,4,4-trifluorobutyl)-6-chloro-8-[(2,6-difluorobenzyl)oxy]-2-methylimidazo[1,2-a]pyridine-3-carboxamide], 0.30 µM; for `COCC(N)CNC(=O)c1c(C)nc2c(OCc3c(F)cccc3F)cccn12` (single isomer, unassigned) [Example 247, ent-N-(2-Amino-3-methoxypropyl)-8-[(2,6-difluorobenzyl)oxy]-2-methylimidazo[1,2-a]pyridine-3-carboxamide], 3.00 µM.

`Cc1nc2c(OCc3c(F)cccc3F)cc(CF)cn2c1C(=O)NCC(C)(N)CF` (stereo not drawn) [Example 405, ent-N-(2-amino-3-fluoro-2-methylpropyl)-8-[(2,6-difluorobenzyl)oxy]-6-(fluoromethyl)-2-methylimidazo[1,2-a]pyridine-3-carboxamide]: the MEC amounted to 0.30 µM. For `Cc1cc(OCc2c(F)cccc2F)c2nc(C)c(C(=O)NCC(C)(N)CCO)n2c1` (racemic) [Example 270, rac-N-(2-Amino-4-hydroxy-2-methylbutyl)-8-[(2,6-difluorobenzyl)oxy]-2,6-dimethylimidazo[1,2-a]pyridine-3-carboxamide] the value was 1.00 µM. For `Cc1nc2c(OCc3c(F)cccc3F)cccn2c1C(=O)NC(CN1CCOCC1)c1ccccc1` (single isomer, unassigned; ent-8) [Example 183, ent-8-[(2,6-Difluorobenzyl)oxy]-2-methyl-N-[2-(morpholin-4-yl)-1-phenylethyl]imidazo[1,2-a]-pyridine-3-carboxamide], the MEC turned out to be 1.00 µM. For the compound `Cc1nc2c(OCc3c(F)cccc3F)cccn2c1C(=O)NC(CN)CC(C(F)(F)F)C(F)(F)F` (racemic) [Example 5, rac-N-[1-amino-5,5,5-trifluoro-4-(trifluoromethyl)pentan-2-yl]-8-[(2,6-difluorobenzyl)oxy]-2-methylimidazo[1,2-a]-pyridine-3-carboxamide trifluoroacetate], the MEC came out at 1.00 µM.

Regarding `Cc1nc2c(OCc3c(F)cccc3F)cc(Cl)cn2c1C(=O)NCC(C)(N)CC(C)C` (single isomer, unassigned) [Example 227, ent-N-(2-Amino-2,4-dimethylpentyl)-6-chloro-8-[(2,6-difluorobenzyl)oxy]-2-methylimidazo[1,2-a]pyridine-3-carboxamide], the MEC amounted to 0.30 µM. In the case of `Cc1nc2c(OCc3c(F)cccc3F)cccn2c1C(=O)NC(CN)c1ccc(F)c(F)c1` (single isomer, unassigned; enantiomer a) [Example 12, ent-N-[2-Amino-1-(3,4-difluorophenyl)ethyl]-8-[(2,6-difluorobenzyl)oxy]-2-methylimidazo[1,2-a]-pyridine-3-carboxamide (Enantiomer A)], the MEC was determined as 1.00 µM.

Turning to `CCCC(C)(N)CNC(=O)c1c(C)nc2c(OCc3c(F)ccc(F)c3F)cc(C)cn12` (racemic) [Example 293, rac-N-(2-amino-2-methylpentyl)-2,6-dimethyl-8-[(2,3,6-trifluorobenzyl)oxy]imidazo[1,2-a]pyridine-3-carboxamide], the MEC was 0.03 µM. For the compound `Cc1nc2c(OCc3c(F)cccc3F)cccn2c1C(=O)NCCN(C)C` [Example 86, 8-[(2,6-difluorobenzyl)oxy]-N-[2-(dimethyl-amino)ethyl]-2-methylimidazo[1,2-a]pyridine-3-carboxamide], the MEC amounted to 2.00 µM. As for `Cc1nc2c(OCc3c(F)cccc3F)cccn2c1C(=O)NC(C)[C@H](C)N` (single isomer, unassigned) [Example 174], the MEC is 0.30 µM. As for `Cc1cc(OCc2c(F)cccc2F)c2nc(C)c(C(=O)NC3CNCC(F)(F)C3)n2c1` (racemic) [Example 312, rac-8-[(2,6-difluorobenzyl)oxy]-N-(5,5-difluoropiperidin-3-yl)-2,6-dimethylimidazo[1,2-a]pyridine-3-carboxamide], the MEC came to 0.30 µM. Take `Cc1nc2c(OCc3c(F)cccc3F)cccn2c1C(=O)NCC(N)C(C)C` (single isomer, unassigned) [Example 228, ent-N-(2-Amino-3-methylbutyl)-8-[(2,6-difluorobenzyl)oxy]-2-methylimidazo[1,2-a]pyridine-3-carboxamide]: the MEC was 1.00 µM. As for `CCCC(C)(N)CNC(=O)c1c(C)nc2c(OCc3c(F)cccc3F)cc(CC)cn12` (stereo not drawn) [Example 323, ent-N-(2-amino-2-methylpentyl)-8-[(2,6-difluorobenzyl)oxy]-6-ethyl-2-methylimidazo[1,2-a]pyridine-3-carboxamide], the MEC was determined as 0.30 µM.
